In ChEMBL document CHEMBL1697723, “A predictive ligand-based Bayesian model for human drug-induced liver injury” (Drug Metab Dispos, 2010) one finds Hepatotoxicity data, which are given here for 18 compounds.

The test system of one data set is Hepatotoxicity. The data set can be described thus: Human drug-induced liver injury (DILI) modelling dataset from Ekins et al.
Conditions: not given
For the compound `CCOC(=O)C1(c2ccccc2)CCN(CCC(C#N)(c2ccccc2)c2ccccc2)CC1.Cl` [DIPHENOXYLATE HYDROCHLORIDE], the Hepatotoxicity entry is “DILI negative (test set)”.

For the compound `CC(C)N(CCC(C(N)=O)(c1ccccc1)c1ccccn1)C(C)C.O=P(O)(O)O` (stereo not drawn) [DISOPYRAMIDE PHOSPHATE], the Hepatotoxicity entry is reported as “DILI positive (training set)”.

For `CC(CCc1ccc(O)cc1)NCCc1ccc(O)c(O)c1.Cl` (stereo not drawn) [DOBUTAMINE HYDROCHLORIDE], the Hepatotoxicity entry is on record as “DILI negative (training set)”.

As to `COc1cc2c(cc1OC)C(=O)C(CC1CCN(Cc3ccccc3)CC1)C2` (stereo not drawn) [DONEPEZIL], the Hepatotoxicity entry is “DILI negative (training set)”.

As for `COc1cccc2c1C(=O)c1c(O)c3c(c(O)c1C2=O)C[C@@](O)(C(=O)CO)C[C@@H]3O[C@H]1C[C@H](N)[C@H](O)[C@H](C)O1.Cl` [DOXORUBICIN HYDROCHLORIDE], the Hepatotoxicity entry is recorded as “DILI positive (test set)”.

As to `COc1cccc2c1C(=O)c1c(O)c3c(c(O)c1C2=O)C[C@@](O)(C(=O)CO)C[C@@H]3O[C@H]1C[C@H](N)[C@H](O)[C@H](C)O1` [DOXORUBICIN], the Hepatotoxicity entry is reported as “DILI negative (test set)”.

With `Clc1ccc(COC(Cn2ccnc2)c2ccc(Cl)cc2Cl)cc1.O=[N+]([O-])O` (stereo not drawn) [ECONAZOLE NITRATE], the Hepatotoxicity result is “DILI negative (test set)”.

Consider `CC[N+](C)(C)c1cccc(O)c1.[Cl-]` [EDROPHONIUM CHLORIDE], for which the Hepatotoxicity result is recorded as “DILI negative (training set)”.

Turning to `CCN(CC)C(=O)/C(C#N)=C/c1cc(O)c(O)c([N+](=O)[O-])c1` [ENTACAPONE], the Hepatotoxicity result is recorded as “DILI negative (test set)”.

Take `COc1cccc2c1C(=O)c1c(O)c3c(c(O)c1C2=O)C[C@@](O)(C(=O)CO)C[C@@H]3O[C@H]1C[C@H](N)[C@@H](O)[C@H](C)O1` [EPIRUBICIN]: the Hepatotoxicity result is reported as “DILI negative (test set)”.

As for `CCCCc1ncc(/C=C(\Cc2cccs2)C(=O)O)n1Cc1ccc(C(=O)O)cc1` [EPROSARTAN], the Hepatotoxicity result is “DILI negative (test set)”.

With `C[C@@H](CO)NC(=O)[C@@H]1C=C2c3cccc4[nH]cc(c34)C[C@H]2N(C)C1.O=C(O)/C=C\C(=O)O` [ERGONOVINE MALEATE], the Hepatotoxicity entry was “DILI negative (training set)”.

Regarding `CN1C[C@H](C(=O)N[C@]2(C)O[C@@]3(O)[C@@H]4CCCN4C(=O)[C@H](Cc4ccccc4)N3C2=O)C=C2c3cccc4[nH]cc(c34)C[C@H]21.CN1C[C@H](C(=O)N[C@]2(C)O[C@@]3(O)[C@@H]4CCCN4C(=O)[C@H](Cc4ccccc4)N3C2=O)C=C2c3cccc4[nH]cc(c34)C[C@H]21.O=C(O)C(O)C(O)C(=O)O` [ERGOTAMINE TARTRATE], the Hepatotoxicity result is listed as “DILI negative (test set)”.

`CCC(=O)O[C@H]1[C@H](O[C@@H]2[C@@H](C)[C@H](O[C@H]3C[C@@](C)(OC)[C@@H](O)[C@H](C)O3)[C@@H](C)C(=O)O[C@H](CC)[C@@](C)(O)[C@H](O)[C@@H](C)C(=O)[C@H](C)C[C@@]2(C)O)O[C@H](C)C[C@@H]1N(C)C.CCCCCCCCCCCCOS(=O)(=O)O` [ERYTHROMYCIN ESTOLATE]: the Hepatotoxicity entry is recorded as “DILI positive (training set)”.

For `CC[C@H]1OC(=O)[C@H](C)[C@@H](O[C@H]2C[C@@](C)(OC)[C@@H](O)[C@H](C)O2)[C@H](C)[C@@H](O[C@@H]2O[C@H](C)C[C@H](N(C)C)[C@H]2O)[C@](C)(O)C[C@@H](C)C(=O)[C@H](C)[C@@H](O)[C@]1(C)O` [ERYTHROMYCIN], the Hepatotoxicity entry is on record as “DILI negative (training set)”.

The same data set, now with this note: Liver.
On to `c1cc[n+]2c(c1)-c1cccc[n+]1CC2` [DIQUAT], for which the Hepatotoxicity result is “DILI positive (test set)”.

`NCCc1ccc(O)c(O)c1` [DOPAMINE]: the Hepatotoxicity result is reported as “DILI negative (training set)”.

Regarding `C=C1CC[C@H](O)C/C1=C/C=C1\CCC[C@]2(C)[C@@H]([C@H](C)/C=C/[C@H](C)C(C)C)CC[C@@H]12` [ERGOCALCIFEROL], the Hepatotoxicity entry is “DILI negative (training set)”.
